# Source: PMC12559223, “Structural basis of apoptosis induction by the mitochondrial voltage-dependent anion channel” (Nature Communications, 2025)
# Positions of bridges follow the written chain, without caps; N, C: chain ends. Non-standard residues stand in square brackets, D forms with d. Residues, ends and D or L forms follow the SMILES beside them. S5 = C=CCCC[C@](C)(N)C(=O)O
# System: Bak-BclxL complex
# Assay: Liposome permeabilization (pore-forming) assay, cBid-activated Bak inhibited by BclxL
# Assay type: biochemical, human
# Conditions: increasing concentrations of peptide (10-100 µM); 50 nM BakΔTM, 40 nM cBid, 50 nM BclxLΔTM
smiles,measurement,value
CC(C)C[C@H](NC(=O)[C@H](CC(=O)O)NC(=O)[C@H](C)NC(=O)[C@@H](N)Cc1ccc(O)cc1)C(=O)N[C@@]1(C)CCCC=CCCC[C@@](C)(C(=O)N[C@@H](CC(=O)O)C(=O)N[C@H](C(=O)N[C@@H](Cc2ccccc2)C(=O)N[C@H](C(=O)N[C@@H](CCCCN)C(=O)NCC(=O)O)[C@@H](C)O)C(C)C)NC(=O)[C@H](C)NC(=O)[C@H](CO)NC(=O)[C@H](CCCCN)NC1=O [stVDAC1-N] (H-YADL[S5]KSA[S5]DVFTKG-OH; staple 5-9; N-terminus and C-terminus assumed),effect on pore-forming activity of BclxL-inhibited Bak (in words),concentration-dependent rescue of the pore-forming activity of Bak
